Earlier results as cited in patent US10058532B2, “Methods of preventing progression to type 2 diabetes mellitus” (Vivus, Inc., priority 2013, dated 2018).
Where two headings read alike, the source gives them in different places.

For `CC1(C)O[C@@H]2[C@@H](CO[C@@]3(COS(N)(=O)=O)OC(C)(C)O[C@@H]23)O1` [Topiramate, 2,3:4,5-di-O-isopropylidene-β-D-fructopyranose sulfamate], the solubility (methanol and acetone) is given as “freely soluble”, the solubility (pH 1 to pH 8 aqueous solutions) is given as “slightly soluble” and the solubility (pH 9 to pH 12 aqueous solutions) is given as “sparingly soluble”.
